Results: publication PMC10675732 (Viruses, 2023)

Tested on: A36T virus (PA/A36T, A/PR/8/34 (H1N1))
Format: cell-based, influenza A virus

Structure (SMILES)	EC50 [µM]	Fold change
O=C1c2c(O)c(=O)ccn2N([C@@H]2c3ccccc3SCc3c2ccc(F)c3F)[C@@H]2COCCN12 [baloxavir acid]	0.00259 ± 0.00133	1.53
NC(=O)c1nc(F)c[nH]c1=O [Favipiravir]	19.1 ± 4.87	0.86
